Laboratory results from patent US7745492B2, “Carboxamido opioid compounds” (Janssen Pharmaceutical, priority 2004, dated 2010).

Experiments:
[1] = molecular target: T1, delta opioid receptor (Rattus norvegicus, UniProt P33533); assay: Rat brain delta opioid receptor binding assay ([3H]DPDPE); conditions: rat forebrain membranes, 25° C.
T1 construct: from tissue; host or cells: rat forebrain membrane (particulate) preparation
Protocol: (§1) Rat Brain Mu and Delta Opioid Receptor Binding Assay
Male, Wistar rats (150-250 g, VAF, Charles River, Kingston, N.Y.) were killed by cervical dislocation and their brains removed and placed immediately in ice cold Tris HCl buffer (50 mM, pH 7.4). The forebrains were separated from the remainder of the brain by a coronal transection, beginning dorsally at the colliculi and passing ventrally through the midbrain-pontine junction. After dissection, the forebrains were homogenized in Tris buffer in a Teflon®-glass homogenizer. The homogenate was diluted to a concentration of 1 g of forebrain tissue per 100 mL Tris buffer and centrifuged at 39,000×G for 10 min. The pellet was resuspended in the same volume of Tris buffer with several brief pulses from a Polytron homogenizer. This particulate preparation was used for the opioid receptor binding assays. […] The tubes and filters were rinsed three times with 4 mL of 10 mM HEPES (pH 7.4) and the radioactivity associated with the filter circles determined using Formula 989 scintillation fluid (New England Nuclear, Boston, Mass.) in a scintillation counter.
(§2) The data were used to calculate a Ki value, using GraphPad Prism.

[2] = molecular target: T2, mu opioid receptor (Rattus norvegicus, UniProt P33535); assay: Rat brain mu opioid receptor binding assay ([3H]DAMGO); conditions: rat forebrain membranes, 25° C.
T2 construct: from tissue; host or cells: rat forebrain membrane (particulate) preparation
T2 sequence (P33535 whole entry): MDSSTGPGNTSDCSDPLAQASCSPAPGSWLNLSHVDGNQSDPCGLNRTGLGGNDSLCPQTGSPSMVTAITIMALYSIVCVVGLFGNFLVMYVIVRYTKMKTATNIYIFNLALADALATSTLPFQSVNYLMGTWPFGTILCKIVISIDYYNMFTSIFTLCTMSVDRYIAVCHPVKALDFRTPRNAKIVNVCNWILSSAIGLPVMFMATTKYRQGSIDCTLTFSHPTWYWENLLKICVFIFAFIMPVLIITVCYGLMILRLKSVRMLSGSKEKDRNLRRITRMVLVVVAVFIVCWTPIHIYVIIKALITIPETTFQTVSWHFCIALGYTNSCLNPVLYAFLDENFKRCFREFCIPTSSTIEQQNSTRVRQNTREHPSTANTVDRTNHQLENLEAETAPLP
Protocol: as §1
Male, Wistar rats (150-250 g, VAF, Charles River, Kingston, N.Y.) were killed by cervical dislocation and their brains removed and placed immediately in ice cold Tris HCl buffer (50 mM, pH 7.4). The forebrains were separated from the remainder of the brain by a coronal transection, beginning dorsally at the colliculi and passing ventrally through the midbrain-pontine junction. After dissection, the forebrains were homogenized in Tris buffer in a Teflon®-glass homogenizer. The homogenate was diluted to a concentration of 1 g of forebrain tissue per 100 mL Tris buffer and centrifuged at 39,000×G for 10 min. The pellet was resuspended in the same volume of Tris buffer with several brief pulses from a Polytron homogenizer. This particulate preparation was used for the opioid receptor binding assays. Following incubation with the mu opioid selective peptide ligand [^3H]DAMGO or the delta opioid selective ligand [^3H]DPDPE at 25° C., the tube contents were filtered through Whatman GF/B filter sheets on a Brandel cell harvester. The tubes and filters were rinsed three times with 4 mL of 10 mM HEPES (pH 7.4) and the radioactivity associated with the filter circles determined using Formula 989 scintillation fluid (New England Nuclear, Boston, Mass.) in a scintillation counter.
as §2

[3] = tested on: Male Sprague Dawley rats; assay: Spinal nerve ligation (SNL) model of neuropathic pain, mechanical allodynia (Von Frey); format: in vivo; conditions: rat
Protocol: Spinal Nerve Ligation (SNL) Model of Neuropathic Pain
Male Sprague Dawley rats weighing 145 to 165 g (approximately 6 weeks of age) were obtained from Harlan (Indianapolis, Ind.). Food and water were provided ad lib and a 12 h light and 12 h dark cycle were maintained. Animals were group housed under specific pathogen-free, barrier maintained environment and were allowed to acclimate for no less than 1 week. Following surgery, animals were housed individually in solid bottom polycarbonate cages with automatic watering devices at 22° C. and a relative humidity of 60%. All animals received Harland Tekland Diet # 8604.
Anesthesia was induced using isoflurane (IsoVet™) inhalant in an induction chamber (3-5% in 2 L/min of O2). Once recumbent, the animal was removed and placed into a nose cone which delivered inhalant isoflurane (0.5-2.5% at 2 L/min Of O2). The dorsal pelvic area was shaved and scrubbed aseptically with chlorhexidine scrub, 70% alcohol, and a 5% chlorhexidine solution. The animal was held in ventral recumbency on a heating pad, and the surgical procedure described by Kim and Chung (1992) was performed. The left paraspinal muscles were separated from the spinous processes at the level of Lumbar 4 to Sacral 2 (L4-S2). Once the musculature was retracted, the L6 transverse process was removed using a small rongeur. L4 and L5 spinal nerves could then be visualized. L5 was then isolated and ligated using 6-0 silk suture material. Warm saline and a dose of long-acting antibiotic was administered immediately post-op before recovery form anesthesia.
At least one week following surgery, animals were individually placed in a Lucite testing chamber with a wire mesh bottom. Mechanical (tactile) allodynia was measured by recording the pressure at which the affected paw was withdrawn from graded stimuli (Von Frey hairs ranging from 4.0 to 148.1 mN equivalent to 0.25 to 15 g of pressure) applied to the plantar surface of the paw (between the footpads) according to the procedure of Chaplan et. al (1994) in order to calculate paw withdrawal threshold (PWT). Normal rats can withstand at least 15 g of pressure without responding. SNL rats can respond to as little as 0.25 g of pressure. Rats were included in this study only if their PWT was below 4.0 g.
Animals were used for compound testing between 2 weeks and 8 weeks post-operatively. Animals were always pre-tested for baseline withdrawal threshold on the day of testing. Following a 16 h fast, PWT was evaluated at 30 min, 1 h, 2 h, and 4 h post-dosing. Dose-response studies were conducted at the time of peak effect. Studies were conducted in a blinded manner.
Data were normalized and results were presented as % MPE (maximum possible effect) of the drug.

[4] = molecular target: T3, Delta opioid (Mus musculus, UniProt P32300); assay: [35S]GTPγS binding assay in NG108-15 cell membrane; format: biochemical; conditions: NG108-15 cell membranes
T3 construct: NG108-15 cell membranes were purchased from Applied Cell Sciences (Rockville, Md.); host or cells: NG108-15 cell membranes
T3 sequence (P32300 whole entry): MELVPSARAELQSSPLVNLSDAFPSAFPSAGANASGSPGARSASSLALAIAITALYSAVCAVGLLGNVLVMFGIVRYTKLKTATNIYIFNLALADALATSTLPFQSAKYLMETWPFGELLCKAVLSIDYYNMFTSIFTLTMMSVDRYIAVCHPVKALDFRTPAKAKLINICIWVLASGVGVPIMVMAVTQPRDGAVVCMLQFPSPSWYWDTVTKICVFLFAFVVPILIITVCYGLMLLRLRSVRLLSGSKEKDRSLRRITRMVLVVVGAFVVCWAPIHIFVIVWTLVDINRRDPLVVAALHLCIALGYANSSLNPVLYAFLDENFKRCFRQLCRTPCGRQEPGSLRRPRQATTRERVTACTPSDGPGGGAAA
Protocol: [^35S]GTPγS Binding Assay in NG108-15 Cell Membrane
NG108-15 cell membranes were purchased from Applied Cell Sciences (Rockville, Md.). An 8 mg/mL portion of membrane protein was suspended in 10 mM TRIS-HCl, pH 7.2, 2 mM EDTA, 10% sucrose.
(§3) Membranes were maintained at 4-8° C. A 1 mL portion of membranes was added into 10 mL cold assay buffer, containing 50 mM Tris, pH 7.6, 5 mM MgCl2, 100 mM NaCl, 1 mM DTT and 1 mM EGTA. The membrane suspension was homogenized with a Polytron 2 times and centrifuged at 3000 rpm for 10 min. The supernatant was then centrifuged at 18,000 rpm for 20 min. The pellet was resuspended in 10 ml assay buffer using a Polytron.
The pellet membranes (75 μg/ml) were preincubated with SPA beads (10 mg/ml) at 25° C. for 45 min in the assay buffer. The SPA beads (5 mg/ml) coupled with membranes (37.5 μg/ml) were then incubated with 0.1 nM [^35S] GTPγS in the same Tris buffer containing 100 μM GDP in total volume of 200 μl. A range of concentrations of receptor agonists was used to stimulate [^35S] GTPγS binding. The basal binding was tested in the absence of agonist and non-specific binding was tested in the presence of 10 μM unlabeled GTPγS. The radioactivity was quantified on a Packard TopCount.
Calculations were performed as follows: % of Basal=(stimulated−non specific)*100/(basal−non specific).
(§4) EC50 values were calculated using the Prism program.

[5] = molecular target: T4, Human mu opioid (Homo sapiens, UniProt P35372); assay: [35S]GTPγS binding assay in human mu opioid-CHO cell membranes; format: biochemical
T4 construct: host or cells: CHO cell membranes
T4 sequence (P35372 whole entry): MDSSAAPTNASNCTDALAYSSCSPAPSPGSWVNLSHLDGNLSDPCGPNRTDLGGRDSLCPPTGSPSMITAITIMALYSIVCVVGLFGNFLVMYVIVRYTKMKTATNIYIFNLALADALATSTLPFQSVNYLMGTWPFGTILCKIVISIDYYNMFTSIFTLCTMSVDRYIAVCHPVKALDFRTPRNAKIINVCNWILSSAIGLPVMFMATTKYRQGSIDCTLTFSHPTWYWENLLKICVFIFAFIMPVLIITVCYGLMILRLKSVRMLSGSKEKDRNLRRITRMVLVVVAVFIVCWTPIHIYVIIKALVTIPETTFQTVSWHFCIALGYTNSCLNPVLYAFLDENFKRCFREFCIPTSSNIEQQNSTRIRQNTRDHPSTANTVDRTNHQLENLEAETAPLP
Protocol: [^35S]GTPγS Binding Assay in Human mu opioid-CHO Cell Membranes
Human mu-CHO cell membranes were purchased from Receptor Biology, Inc. (Baltimore, Md.). About 10 mg/ml of membrane protein was suspended in 10 mM TRIS-HCl, pH 7.2, 2 mM EDTA, 10% sucrose.
as §3, with “C.” for “C. A”, “ml” for “mL portion”, “15 ml” for “10 mL”, “HEPES,” for “Tris,”, “EDTA.” for “EGTA.”, “with” for “using”
The pellet membranes (20 μg/ml) were preincubated with Scintillation Proximity Assay beads (SPA, 10 mg/ml) at 25° C. for 45 min in the assay buffer. The SPA beads (5 mg/ml) coupled with membranes (10 μg/ml) were then incubated with 0.5 nM [^35S]GTPγS in the same HEPES buffer containing 50 μM GDP in total volume of 200 μl. A range of concentrations of receptor agonists were used to stimulate [^35S]GTPγS binding. The basal binding was tested in the absence of agonist and non-specific binding was tested in the presence of 10 μM unlabeled GTPγS. Radioactivity was quantified on a Packard TopCount.
Data were Calculated as Follows: % of basal=(stimulated−non-specific)*100/(basal−non specific) % Inhibition=(% Basal of 1 μM DAMGO−% Basal of compound)*100/(% Basal of 1 μM DAMGO−100)
as §4

[6] = tested on: male Sprague-Dawley rats; assay: Rat CFA radiant heat model of inflammatory pain; format: in vivo; conditions: dosed orally 24 h after intraplantar CFA
Protocol: Rat CFA Radiant Heat Model of Inflammatory Pain
Intraplantar injection of Complete Freund's Adjuvant (CFA) in rodents results in a strong, long-lasting inflammatory reaction, characterized by a chronic and pronounced hyperalgesia to both thermal and mechanical stimuli. These effects peak between 24-72 h following injection, and can last for several days to a few weeks. To assess the ability of compounds to reverse thermal hyperalgesia, male Sprague-Dawley rats (200-350 g) were given an intraplantar injection of CFA (1:1 CFA:saline, 100 μL) into their left hindpaw. Following a 24-h incubation period, response latencies on the Radiant Heat Paw Stimulator (RH) were obtained and compared to baseline (pre-CFA) latencies. The RH device automatically registered lifting of the paw from the surface of the glass. […] Following the post CFA latency assessment, rats were dosed orally (2.5 mL/kg) with test compound or vehicle (hydroxypropylmethylcellulose, HPMC). Percent reversal of hyperalgesia was calculated for each animal as (Treatment Response−postCFA Response)/(preCFA Response−postCFA Response)×100. Therefore, a return to normal pre-CFA thresholds was defined as 100% efficacy, whereas no change from post-CFA thresholds was 0% efficacy. Average % reversal of hyperalgesia was then calculated for each treatment group (n=6-8 rats/group). […]

[7] = tested on: spinal nerve ligated rats; assay: Investigation of tolerance development to antiallodynic effect; format: in vivo, rat; conditions: dosing for five days, evaluated days one and five
Protocol: Investigation of Tolerance Development
The development of tolerance to the analgesic effect of mu opioid compounds is well known. The development of tolerance to the antiallodynic effect of the Compound 3 was investigated by administering the compound to spinal nerve ligated rats for five days. The antiallodynic effect of the compound was evaluated on days one and five.

T1 sequence (P33533 whole entry): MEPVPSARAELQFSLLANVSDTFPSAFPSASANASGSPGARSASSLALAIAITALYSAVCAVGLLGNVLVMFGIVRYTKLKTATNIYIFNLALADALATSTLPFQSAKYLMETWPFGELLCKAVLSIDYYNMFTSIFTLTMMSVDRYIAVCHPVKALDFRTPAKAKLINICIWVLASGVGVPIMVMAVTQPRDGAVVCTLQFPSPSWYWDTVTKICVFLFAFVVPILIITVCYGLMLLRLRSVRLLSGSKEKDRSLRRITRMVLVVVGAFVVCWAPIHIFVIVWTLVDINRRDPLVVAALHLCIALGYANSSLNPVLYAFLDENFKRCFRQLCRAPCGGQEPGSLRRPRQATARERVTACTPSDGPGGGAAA

Row | Compound | Ki [1] [µM] | Ki [2] [µM] | other results
1 | CN(C)C[C@@H]1CCCC[C@]1(O)c1cccc(C(N)=O)c1 (racemic) [Cpd 1, 3-[(1-RS, 2-SR)-2-[(Dimethylamino)methyl]-1-hydroxycyclohexyl]-benzamide] | 9.87 | 1.39 | 
2 | CN(C)C[C@H]1CCCC[C@]1(O)c1cccc(C(N)=O)c1 (racemic) [Cpd 2, 3-[(1-RS, 2-RS)-[(2-Dimethylamino)methyl]-1-hydroxycyclohexyl]-benzamide] | 2.47 | 0.0294 | MPE in spinal nerve ligation model ([3]; 3 mg/kg, i.v.): 87%; MPE in spinal nerve ligation model ([3]; 30 mg/kg, p.o.): 88%; EC50 [4]: 5.63 µM; Mu opioid GTPγS (result in words) [5]: Agonist
3 | CCN(CC)C(=O)c1cccc([C@@]2(O)CCCC[C@@H]2CN(C)C)c1 (racemic) [Cpd 5, 3-[(1-RS, 2-RS)-2-[(dimethylamino)methyl]-1-hydroxycyclohexyl]-N,N-diethyl-benzamide] | > 10 | > 10 | 
4 | CN(C)C[C@H]1CCCC[C@]1(O)c1cccc(C(=O)NC2CC2)c1 (racemic) [Cpd 6, N-Cyclopropyl-3-[(1-RS, 2-RS)-2-[(dimethylamino)methyl]-1-hydroxycyclohexyl]-benzamide] | > 10 | 5.19 | 
5 | CNC(=O)c1cccc([C@@]2(O)CCCC[C@@H]2CN(C)C)c1 (racemic) [Cpd 7, 3-[(1-RS, 2-RS)-2-[(Dimethylamino)methyl]-1-hydroxycyclohexyl]-N-methylbenzamide] | > 10 | 2.12 | 
6 | CN(C)C[C@@H]1CCCC[C@@]1(O)c1cccc(C(N)=O)c1 (single isomer, unassigned) [Cpd 4] | > 10 | 0.828 | MPE in spinal nerve ligation model ([3]; 30 mg/kg, p.o.): 39%; MPE in spinal nerve ligation model ([3]; 100 mg/kg, p.o.): 95%; EC50 [5]: 4.82 µM; Mu opioid GTPγS relative efficacy [5]: 41%; Antihyperalgesic effect (reversal of thermal hyperalgesia) [6]: antihyperalgesic
7 | CN1CC[C@]23c4c5ccc(O)c4O[C@H]2[C@@H](O)C=C[C@H]3[C@H]1C5 [morphine, reference compound] |  |  | Development of tolerance to the antiallodynic effect [7]: little or no antiallodynic effect remaining after five days of dosing
